# In US7625948B2, “Ester compound and medicinal use thereof” (Japan Tobacco Inc., priority 2002, dated 2009):
# Like-named read-outs stand apart in the source and are kept apart here.
# What was measured:
# [1] = target: T1, Microsomal triglyceride transfer protein (MTP) from bovine liver (Bos taurus, UniProt P55156); assay: Test Example 1: inhibition of interliposomal triglyceride (TG) transfer activity by MTP (also used for metabolites in Test Example 8); type: biochemical
# T1 construct: from tissue; host or cells: bovine liver
# T1 sequence (P55156 12-887): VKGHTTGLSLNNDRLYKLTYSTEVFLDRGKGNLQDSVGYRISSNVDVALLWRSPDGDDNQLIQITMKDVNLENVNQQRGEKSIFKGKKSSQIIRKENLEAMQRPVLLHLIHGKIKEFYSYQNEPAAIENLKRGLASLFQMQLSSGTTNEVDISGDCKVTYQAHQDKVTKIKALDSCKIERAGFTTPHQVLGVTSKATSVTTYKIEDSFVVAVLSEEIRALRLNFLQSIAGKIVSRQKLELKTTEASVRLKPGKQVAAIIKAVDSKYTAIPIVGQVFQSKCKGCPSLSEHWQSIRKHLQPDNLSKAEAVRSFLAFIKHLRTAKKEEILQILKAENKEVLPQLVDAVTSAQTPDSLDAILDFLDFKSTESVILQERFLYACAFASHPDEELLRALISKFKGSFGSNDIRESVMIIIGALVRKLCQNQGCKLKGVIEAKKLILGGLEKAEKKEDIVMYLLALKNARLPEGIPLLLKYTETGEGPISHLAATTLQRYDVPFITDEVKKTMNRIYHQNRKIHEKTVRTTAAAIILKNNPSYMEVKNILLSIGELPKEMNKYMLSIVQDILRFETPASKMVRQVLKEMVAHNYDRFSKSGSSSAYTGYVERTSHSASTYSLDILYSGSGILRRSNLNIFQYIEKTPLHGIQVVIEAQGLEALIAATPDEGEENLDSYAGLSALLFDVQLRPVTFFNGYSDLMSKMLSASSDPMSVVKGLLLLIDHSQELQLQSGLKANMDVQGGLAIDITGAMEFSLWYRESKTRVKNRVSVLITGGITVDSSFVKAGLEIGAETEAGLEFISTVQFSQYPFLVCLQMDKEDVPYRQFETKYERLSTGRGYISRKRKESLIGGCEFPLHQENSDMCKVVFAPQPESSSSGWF
# T1 sequence (P05307 21-510 partner): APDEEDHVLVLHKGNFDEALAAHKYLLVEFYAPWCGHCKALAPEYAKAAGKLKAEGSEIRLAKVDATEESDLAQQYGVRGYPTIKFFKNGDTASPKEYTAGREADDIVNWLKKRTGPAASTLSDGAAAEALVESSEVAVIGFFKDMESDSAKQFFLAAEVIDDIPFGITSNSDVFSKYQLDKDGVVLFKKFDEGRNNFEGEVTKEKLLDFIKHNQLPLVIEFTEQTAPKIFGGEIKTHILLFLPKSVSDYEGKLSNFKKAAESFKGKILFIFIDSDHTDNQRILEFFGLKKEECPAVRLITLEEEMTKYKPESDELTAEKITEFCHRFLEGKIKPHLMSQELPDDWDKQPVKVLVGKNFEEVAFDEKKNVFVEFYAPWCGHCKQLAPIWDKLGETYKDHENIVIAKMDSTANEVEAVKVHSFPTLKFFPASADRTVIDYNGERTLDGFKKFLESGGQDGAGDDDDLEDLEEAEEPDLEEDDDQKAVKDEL
# Procedure: Inhibition of Interliposomal Triglyceride (TG) Transfer Activity by MTP
# Microsomal triglyceride transfer protein (MTP) from bovine liver was partially purified in such a way described below. A buffer (50 mM Tris, 250 mM sucrose, 1 mM EDTA, 0.02% NaN3 (pH 7.4)) for making a homogenate preparation was added to bovine liver, and the mixture was homogenated under ice-cooling, then centrifuged at 10,000×g (4° C., 30 minutes). The supernatant was adjusted to pH 5.1 with hydrochloric acid, and stirred for 30 minutes. The solution was further centrifuged at 10,000×g (4° C., 30 minutes), and 1 mM Tris buffer was added to the precipitated residue, and the mixture was adjusted to pH 8.6 with sodium hydroxide. After addition of 2.7M ammonium sulfate solution, the mixture was stirred for 30 minutes, then centrifuged at 10,000×g (4° C., 40 minutes). The resulting supernatant was served as a crude extraction fraction of MTP and stored at −80° C. under freezing. In its practical use, the crude extraction fraction of MTP was purified by column chromatography on diethylaminoethyl (DEAE) Sepharose using FPLC (Fast Performance Liquid Chromatography) system, and the purified MTP was used for the test.
# Small unilamellar-vesicle (SUV) liposome (donor, 0.25 mol % triolein, 5 mol % cardiolipin) labeled with ^14C-triolein and non-labeled SUV liposome (acceptor, 0.25 mol % triolein) were prepared. A fixed amount of donor and acceptor, and MTP were mixed with a sample dissolved in DMSO or with DMSO. The mixture was incubated in a 15 mM Tris hydrochloride buffer (pH 7.4) containing 40 mM sodium chloride, 1 mM EDTA (ethylenediaminetetraacetic acid), 0.02% NaN3 and 0.5% bovine serum albumin at 37° C. for one hour. After completion of the incubation, a suspension of DEAE cellulose (50% v/v) in 15 mM Tris hydrochloride buffer (pH 7.4) was added to the above solution, and the mixture was centrifuged to separate the donor and the acceptor. The radioactivity in the acceptor was measured by liquid scintillation counter. The value obtained by subtracting the radioactivity in the blank from the amount of radioactivity in the acceptor of a DMSO group was determined as MTP-mediated TG transfer activity, and it was compared with the value obtained by subtracting the radioactivity in the blank from the radioactivity in a sample group. The blank was prepared by adding 15 mM Tris-HCl buffer (pH 7.4) in place of MTP. Inhibition rate (%) was calculated from the values obtained according to the following equation.
# Inhibition rate (%)=100×(1 minus ((radioactivity of sample group minus radioactivity of blank group)/(radioactivity of DMSO group minus radioactivity of blank group))).
# 50% Inhibition rate (IC50) was determined on the basis of the above equation.
# Inhibitory Activity on MTP and apo B Secretion Inhibition by Metabolites
# In a similar manner to Test Examples 1 and 2, the activity of metabolites was assayed.
# [2] = test system: HepG2 cells; assay: Test Example 2: inhibition of apolipoprotein B secretion from HepG2 cells, ELISA (also used for metabolites in Test Example 8); type: cell-based; details: Homo sapiens
# In short: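 HepG2 cells cultured 24 h, then exposed 24 h to compounds or metabolites in medium with 0.5% DMSO. Secreted apo B in supernatant quantified by sandwich ELISA (HRP, ABTS, 405 nm) against purified human apo B standard; % inhibition vs DMSO group, IC50 derived.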
# [3] = main metabolites of the compounds (Test Example 8), read-out: MTP inhibition IC50
# [4] = main metabolites of the compounds (Test Example 8), read-out: Inhibition of apo B secretion IC50
# [5] = MTP-mediated 14C-triolein transfer between liposomes, 37° C., one hour, read-out: Test Example 1 MTP inhibition IC50
# [6] = 24 hours, apo B in supernatant by ELISA, read-out: Test Example 2 Inhibition of apo B secretion IC50
SMILES,"IC50 [1, 3] [µM]","IC50 [2, 4] [µM]","IC50 [1, 5] [µM]","IC50 [2, 6] [µM]"
CCNC(=O)C(CO)(C(=O)NCC)c1ccccc1,> 1,> 10,,
O=C(O)Cc1ccc(NC(=O)c2ccccc2-c2ccc(C(F)(F)F)cc2)cc1,> 1,> 10,,
CCCNC(=O)C(CO)(C(=O)NCCC)c1ccccc1,> 1,> 10,,
CN(C)C(=O)c1cc(CC(=O)O)ccc1NC(=O)c1ccccc1-c1ccc(C(F)(F)F)cc1,> 10,> 10,,
CCOC(=O)C(CO)(C(=O)OCC)c1ccccc1,> 1,> 10,,
COc1cc(CC(=O)O)ccc1NC(=O)c1ccccc1-c1ccc(C(F)(F)F)cc1,> 1,> 10,,
"CCOC(=O)C(COC(=O)Cc1ccc(N(C)C(=O)c2ccccc2-c2ccc(C(F)(F)F)cc2)cc1)(C(=O)OCC)c1ccccc1 [Example 1-4, 2-(2-{4-[Methyl-(4′-trifluoromethylbiphenyl-2-carbonyl)amino]phenyl}acetoxymethyl)-2-phenylmalonic acid diethyl ester]",,,0.0034,0.19
CC(C(=O)OCC1(C(=O)NCC(F)(F)F)c2ccccc2-c2ccccc21)c1ccc(NC(=O)c2ccccc2-c2ccc(C(F)(F)F)cc2)cc1 (centres unmarked) [Example 1-7],,,0.00755,0.33
O=C(Cc1ccc(NC(=O)c2ccccc2-c2ccc(C(F)(F)F)cc2)cc1)OCC(C(=O)NCC(F)(F)F)c1ccccc1 (centres unmarked) [Example 1-8],,,0.0375,0.72
CCOC(=O)C(COC(=O)Cc1ccc(NC(=O)c2ccccc2-c2ccc(C(F)(F)F)cc2)cc1)(C(=O)OCC)c1ccccc1 [Example 1-9],,,0.00595,0.0032
CC(C)OC(=O)C(COC(=O)Cc1ccc(NC(=O)c2ccccc2-c2ccc(C(F)(F)F)cc2)cc1)(C(=O)OC(C)C)c1ccccc1 [Example 1-11],,,0.032,0.022
CCOC(=O)C(COC(=O)Cc1ccc(NC(=O)c2ccccc2-c2ccc(C(F)(F)F)cc2)cc1)(C(=O)OCC)C1CCCC1 [Example 1-14],,,0.082,0.055
O=C(Cc1ccc(NC(=O)c2ccccc2-c2ccc(C(F)(F)F)cc2)cc1)OCC(C(=O)OC1CCCCC1)(C(=O)OC1CCCCC1)c1ccccc1 [Example 1-22],,,0.0665,0.179
O=C(Cc1ccc(NC(=O)c2ccccc2-c2ccc(C(F)(F)F)cc2)cc1)OCC(C(=O)NC1CCCCC1)(C(=O)NC1CCCCC1)c1ccccc1 [Example 1-23],,,0.054,0.063
CC(C)NC(=O)C(COC(=O)Cc1ccc(NC(=O)c2ccccc2-c2ccc(C(F)(F)F)cc2)cc1)(C(=O)NC(C)C)c1ccccc1 [Example 1-25],,,0.005,0.0084
CCOC(=O)C(COC(=O)Cc1ccc(NC(=O)c2ccccc2-c2ccc(C(F)(F)F)cc2)cc1)(Cc1ccccc1)C(=O)OCC [Example 1-26],,,0.63,0.62
CCOC(=O)C(COC(=O)Cc1ccc(NC(=O)c2ccccc2-c2ccc(C(F)(F)F)cc2)cc1C)(C(=O)OCC)c1ccccc1 [Example 1-27],,,0.007,0.026
O=C(Cc1ccc(OC(=O)c2ccccc2-c2ccc(C(F)(F)F)cc2)cc1)OCC(C(=O)NCC(F)(F)F)(C(=O)NCC(F)(F)F)c1ccccc1 [Example 1-28],,,0.035,0.64
CCOC(=O)C(COC(=O)Cc1ccc(NC(=O)c2ccccc2-c2ccc(C(F)(F)F)cc2)cc1)(C(=O)OCC)C1CCCCC1 [Example 1-31],,,0.0845,0.061
O=C(Cc1ccc(NC(=O)c2ccccc2-c2ccccc2)cc1)OCC(C(=O)NCC(F)(F)F)(C(=O)NCC(F)(F)F)c1ccccc1 [Example 1-32],,,0.0086,0.72
CCOC(=O)C(COC(=O)Cc1ccc(NC(=O)c2ccccc2-c2ccc(C(F)(F)F)cc2)cc1C(F)(F)F)(C(=O)OCC)c1ccccc1 [Example 1-34],,,0.023,0.1
CNC(=O)C(COC(=O)Cc1ccc(NC(=O)c2ccccc2-c2ccc(C(F)(F)F)cc2)cc1)(C(=O)NC)c1ccccc1 [Example 1-36],,,0.002,0.15
